Assay results reported in patent US20230138395A1, “PHARMACEUTICAL COMPOSITIONS OF A THERAPEUTIC POLYENE MACROLIDE AND METHODS OF THEIR USE” (priority 2020, published 2023).
In brackets after ≈: the same amount, converted by molar mass. Several values for one entry are separate records, joined by “and”; a condition that tells them apart may be missing. Equal values may be shown once. Read-outs that look alike come from different tables or passages of the source.

Assays:
[1] = system: individual Aspergillus spp. (Table 12, species not named); experiment: MFC determination, Table 12; type: cell-based; settings: Aspergillus sp. of Table 12; for MFC50: kills 50% of strains; for MFC90: kills 90% of strains
[2] = system: Paecilomyces strains; experiment: MIC testing (CLSI M38-A2); type: cell-based, Paecilomyces spp.; settings: Paecilomyces strains (5); in µg/mL
[3] = system: A. fumigatus AF91; experiment: In vitro activity (MFC) against the infecting strain, Example 17; type: cell-based, Aspergillus fumigatus
Experimental: Minimum Fungicidal Concentration: MFC determinations were performed according to the modifications previously described by Canton et al., Diagn. Microbiol. Infect. Dis., 45:203-206, 2003, and Ghannoum and Isham, Infectious Diseases in Clinical Practice, 15(4):250-253, 2007.
Specifically, the total contents of each clear well from the MIC assay were subcultured onto potato dextrose agar. To avoid antifungal carryover, the aliquots were allowed to soak into the agar and then were streaked for isolation once dry, thus removing the cells from the drug source. Fungicidal activity is defined as ≥99.9% reduction in the number of colony forming units (CFU)/ml from the starting inoculum count, while fungistatic activity is defined as <99.9% reduction. […] MIC and MFC values are considered to be equivalent if they are within 2 dilutions.

[4] = system: individual Aspergillus spp. (Table 13, species not given); experiment: MIC testing (CLSI M38-A2), Table 13; type: cell-based; settings: Aspergillus sp. of Table 13, caspofungin read as MEC; for MIC Range: in µg/mL; for MIC50: inhibits 50% of strains; for MIC90: inhibits 90% of strains
[5] = system: all Aspergillus strains tested; experiment: MIC testing (CLSI M38-A2), summary; type: cell-based; settings: caspofungin read as MEC; for MIC Range: in µg/mL; for MIC50: inhibits 50% of strains; for MIC90: inhibits 90% of strains
[6] = system: C. parapsilosis; experiment: MFC determination; type: cell-based; settings: for MFC50 / MFC90: C. parapsilosis; for MFC50: kills 50% of strains; for MFC90: kills 90% of strains; for MFC: individual C. parapsilosis strain with elevated MICs to non-polyene comparators (Table 22); for MFC Range: C. parapsilosis strains
[7] = system: individual Aspergillus spp. (Table 13, species not given); experiment: MFC determination, Table 13; type: cell-based; settings: Aspergillus sp. of Table 13; for MFC50: kills 50% of strains; for MFC90: kills 90% of strains
[8] = system: Fusarium strains; experiment: MFC determination, Table 17; type: cell-based, Fusarium spp.; settings: Fusarium strains (Table 17); for MFC50: kills 50% of strains; for MFC90: kills 90% of strains; for MFC Range: in µg/mL
[9] = system: C. tropicalis; experiment: MFC determination; type: cell-based; settings: for MFC Range: C. tropicalis strains, in µg/mL; for MFC50 / MFC90: C. tropicalis; for MFC50: kills 50% of strains; for MFC90: kills 90% of strains
[10] = system: C. albicans SC5314; experiment: In vitro activity (MIC) against the infecting strain, Example 18; type: cell-based, Candida albicans
[11] = system: individual Aspergillus spp. (Table 15, species not named); experiment: MIC testing (CLSI M38-A2), Table 15; type: cell-based; settings: Aspergillus sp. of Table 15, caspofungin read as MEC; for MIC Range: in µg/mL; for MIC50: inhibits 50% of strains; for MIC90: inhibits 90% of strains
[12] = system: C. tropicalis; experiment: MIC testing (CLSI M27-A3); type: cell-based; settings: for MIC Range: C. tropicalis strains, in µg/mL; for MIC50 / MIC90: C. tropicalis; for MIC50: inhibits 50% of strains; for MIC90: inhibits 90% of strains
[13] = system: Blastomyces dermatitidis, Coccidioides immitis, and Histoplasma capsulatum strains; type: cell-based; settings: dimorphic fungal isolates; in µg/mL
[14] = system: Candida albicans ATCC 10231; experiment: MIC50 growth inhibition assay of compositions (OD600), Example 12; type: cell-based; settings: concentration giving 50% growth inhibition
Experimental: Efficacy of the compositions was determined using Minimum Inhibitory Concentration assays, and the concentration of active compound giving 50% growth inhibition of the indicator organism was reported (MIC50). The assay was performed in well plates with two (Müller-Hinton medium) or three parallel (M19-medium) cell cultures for each condition.
Cell Culture Medium: Müller-Hinton and M19 without NaCl.
Indicator Organism: Candida albicans ATCC 10231
Stock Solutions of the Active Compounds and Control: • Amphotericin B (USP): vacuum dried powder was dissolved in DMSO to 2.5 mg/mL giving a final concentration after inoculation of 2.5 μg/mL in the well with the highest concentration. • compound 1A (custom made): powder was dissolved in DMSO to 2.5 mg/mL giving a final concentration after inoculation of 2.5 μg/ml compound 1A in the well with the highest concentration. It is assumed that the batch is 70% pure. • Example 3 composition: the formulation was a suspension with 18 mg/mL nanoparticles. The suspension was diluted in a medium and C. albicans inoculum to a final concentration of 5 μg/mL of compound 1A and 130 μg/mL of […]. From this solution 10 dilutions were prepared giving 0.009 μg/ml compound 1A in the lowest concentration. • Empty poly(ethylbutyl cyanoacrylate) particles: empty poly(ethylbutyl cyanoacrylate) particles were used as a reference. The empty poly(ethylbutyl cyanoacrylate) was produced in the same manner as those in Examples 2 and 3, with the exception that they were prepared at pH 1, with vanillin concentration of 10% (w/w), and. The particles were diluted in the same manner as Example 3. The highest poly(ethylbutyl cyanoacrylate) concentration tested was 130 μg/mL.
Growth measurements were performed at OD600.

[15] = system: Paecilomyces strains; experiment: MFC determination; type: cell-based, Paecilomyces spp.; settings: Paecilomyces strains (5)
[16] = Drug loading and stability by LC-DAD-QTOF / LC-UV; type: physicochemical; settings: high concentrations of ascorbic acid
Experimental: The sizes and size distributions were measured using dynamic light scattering (Malvern Zetasizer and Nanoparticles Tracking Analyzer (NTA)) in phosphate buffer (pH 7). Dry weight was determined by drying three sample aliquots at 50° C. overnight. Drug loading and stability was determined weighing/pipetting three sample aliquots, dissolution in DMSO, and dilution for LC-DAD-QTOF analysis. The concentration of compound 1A was determined using three samples of amphotericin B USP as a standard. The LC-QTOF method was: • Mobile phases: 0.1% formic acid [A] and acetonitrile [B] • HPLC system: Agilent 1290 HPLC system with a 1290 DAD connected to a QTOF • Column: Polaris 3 C18, 150×2 mm, 3 μm (Varian) • Column thermostat: 30° C. • Flow rate: 0.3 ml/min • Injection volume: 2 μL • Wavelength: 385 nm for measuring compound 1A/AMB, Scan 190-600 nm • Software: MassHunter Qualitative analysis B.0.600 • Post time: 5 min • QTOF was operated in negative electrospray mode (ESI−) • The HPLC gradient is shown in Table 1.

[17] = Aspergillus fumigatus, read-out: MFC
[18] = Candida albicans, read-out: MIC

In the case of C[C@@H](c1ncncc1F)[C@](O)(Cn1cncn1)c1ccc(F)cc1F [Voriconazole, voriconazole], the MFC50 [1] is reported as 4 µg/mL (≈ 11.5 µM), the MFC90 [1] is reported as over 16 µg/mL and the “MIC Range” value [2] is reported as 0.125-2. For the same compound, the MFC [3, 17] was over 8 µg/mL, the “MIC Range” value [4] was 0.25-2 and the MIC50 [4] was 0.5 µg/mL (≈ 1.43 µM). The MIC90 [4] was 1 µg/mL (≈ 2.86 µM), the “MIC Range” value [5] was 0.06-8 and the MIC50 [5] was 0.5 µg/mL (≈ 1.43 µM). For the same compound, the MIC90 [5] was 2 µg/mL (≈ 5.73 µM), the MFC50 [6] was over 32 µg/mL and the MFC90 [6] was over 32 µg/mL. The MFC ([6]; in µg/mL) was over 32, the MFC50 [7] was 8 µg/mL (≈ 22.9 µM) and the MFC90 [7] was over 8 µg/mL. The MFC50 [8] was 32 µg/mL (≈ 91.6 µM), the MFC90 [8] was over 32 µg/mL and the “MFC Range” value [9] was over 32. It also gave an MFC50 [9] of over 32 µg/mL, an MFC90 [9] of over 32 µg/mL and an MIC [10, 18] of 0.008 µg/mL (≈ 0.0229 µM). For the same compound, the “MIC Range” value [11] was 0.25-2, the MIC50 [11] was 0.5 µg/mL (≈ 1.43 µM) and the MIC90 [11] was 0.5 µg/mL (≈ 1.43 µM). The “MIC Range” value [12] was <0.06-1, the MIC50 [12] was 0.06 µg/mL (≈ 0.172 µM) and the MIC90 [12] was 0.06 µg/mL (≈ 0.172 µM). The “MIC Range” value [13] was <0.03-0.125.

C[C@@H]1[C@H](O)[C@@H](C)/C=C/C=C/C=C/C=C/C=C/C=C/C=C/[C@H](O[C@@H]2O[C@H](C)[C@@H](O)[C@H](N)[C@@H]2O)C[C@@H]2O[C@](O)(C[C@@H](O)C[C@@H](O)[C@H](O)CC[C@@H](O)C[C@@H](O)CC(=O)O[C@H]1C)C[C@H](O)[C@H]2C(=O)O [Amphotericin B] showed an MFC50 [1] of 8 µg/mL (≈ 8.66 µM), an MFC90 [1] of over 32 µg/mL and an MIC50 ([14]; M19 medium) of 0.34 µg/mL (≈ 0.368 µM). The MIC50 ([14]; Müller-Hinton medium) was 0.04 µg/mL (≈ 0.0433 µM), the MFC [3] was 16 µg/mL (≈ 17.3 µM) and the “MIC Range” value [4] was 1-2. The MIC50 [4] was 1 µg/mL (≈ 1.08 µM), the MIC90 [4] was 2 µg/mL (≈ 2.16 µM) and the “MIC Range” value [5] was 0.25-16. The MIC50 [5] was 1 µg/mL (≈ 1.08 µM), the MIC90 [5] was 8 µg/mL (≈ 8.66 µM) and the “MFC Range” value ([6]; in µg/mL) was 0.5-2. It also gave an MFC50 [6] of 1 µg/mL (≈ 1.08 µM), an MFC90 [6] of 1 µg/mL (≈ 1.08 µM) and an MFC50 [7] of over 8 µg/mL. The MFC90 [7] was over 8 µg/mL, the MFC Range [15] was over 4 µg/mL and the “MFC Range” value [8] was 1-4. For the same compound, the MFC50 [8] was 2 µg/mL (≈ 2.16 µM), the MFC90 [8] was 2 µg/mL (≈ 2.16 µM) and the “MFC Range” value [9] was 0.25-1. For the same compound, the MFC50 [9] was 0.5 µg/mL (≈ 0.541 µM), the MFC90 [9] was 1 µg/mL (≈ 1.08 µM) and the MIC [10] was 0.125 µg/mL (≈ 0.135 µM). The “MIC Range” value [11] was 0.25-16, the MIC50 [11] was 8 µg/mL (≈ 8.66 µM) and the MIC90 [11] was 8 µg/mL (≈ 8.66 µM). For the same compound, the “MIC Range” value [12] was 0.25-0.5, the MIC50 [12] was 0.25 µg/mL (≈ 0.271 µM) and the MIC90 [12] was 0.5 µg/mL (≈ 0.541 µM). For the same compound, the “MIC Range” value [13] was <0.03-0.125.

C[C@@H]1[C@H](O)[C@@H](C)/C=C/C=C/C=C/C=C/C=C/C=C/C=C/[C@H](O[C@@H]2O[C@H](C)[C@@H](O)[C@H](N)[C@@H]2O)C[C@@H]2O[C@](O)(C[C@@H](O)[C@H](O)CC[C@@H](O)C[C@@H](O)C[C@@H](O)CC(=O)O[C@H]1C)C[C@H](O)[C@H]2C [Compound 1A] showed an MFC50 [1] of 4 µg/mL (≈ 4.47 µM), an MFC90 [1] of over 4 µg/mL and an MIC50 ([14]; Candida albicans, ATCC10231, M19 medium, read-out: MIC50) of 0.18 µg/mL (≈ 0.201 µM). The MIC50 ([14]; Candida albicans, ATCC10231, Müller-Hinton medium, read-out: MIC50) was 0.06 µg/mL (≈ 0.0671 µM), the MFC [3, 17] was 2 µg/mL (≈ 2.24 µM) and the “MIC Range” value [4] was 1-2. For the same compound, the MIC50 [4] was 1 µg/mL (≈ 1.12 µM), the MIC90 [4] was 2 µg/mL (≈ 2.24 µM) and the “MIC Range” value [5] was 0.5-4. For the same compound, the MIC50 [5] was 2 µg/mL (≈ 2.24 µM), the MIC90 [5] was 2 µg/mL (≈ 2.24 µM) and the “MFC Range” value ([6]; in µg/mL) was 0.25-2. The MFC50 [6] was 0.5 µg/mL (≈ 0.559 µM), the MFC90 [6] was 2 µg/mL (≈ 2.24 µM) and the MFC [6] was 0.5 (2×) and 1. For the same compound, the MFC50 [7] was 2 µg/mL (≈ 2.24 µM), the MFC90 [7] was over 4 µg/mL and the stability in solution [16] was “chemically dehydrated”. For the same compound, the “MFC Range” value [8] was 1-4, the MFC50 [8] was 2 µg/mL (≈ 2.24 µM) and the MFC90 [8] was over 4 µg/mL. The “MFC Range” value [9] was 0.5-16, the MFC50 [9] was 1 µg/mL (≈ 1.12 µM) and the MFC90 [9] was 8 µg/mL (≈ 8.95 µM). For the same compound, the MIC [10, 18] was 0.5 µg/mL (≈ 0.559 µM), the “MIC Range” value [11] was 0.5-4 and the MIC50 [11] was 2 µg/mL (≈ 2.24 µM). The MIC90 [11] was 4 µg/mL (≈ 4.47 µM), the “MIC Range” value [12] was 0.5-8 and the MIC50 [12] was 1 µg/mL (≈ 1.12 µM). The MIC90 [12] was 8 µg/mL (≈ 8.95 µM) and the “MIC Range” value [13] was <0.03-0.25.
